The values that follow come from article PMC8882611, “Corylus avellana: A Source of Diarylheptanoids With α-Glucosidase Inhibitory Activity Evaluated by in vitro and in silico Studies” (Frontiers in Plant Science, 2022).

Each structure is given as a SMILES string. Where only a bound is given, the exact number is not on record here.

In assay [1] the target is α-glucosidase enzyme (from Saccharomyces cerevisiae) (Saccharomyces cerevisiae, UniProt P53341). Put plainly: biochemical. The note with it: substrate 4-nitrophenyl α-D-glucopyranoside, pH 7.0, 37°C; samples 200, 300, 400 μM; mean ± SD of three experiments; read-out: α-Glucosidase inhibitory activity IC50 ± SD. The method, then: α-Glucosidase inhibitory activity was evaluated as previously reported ([Kilinc et al., 2020]). Briefly, 0.1 M phosphate buffer at pH 7.0 (150 μL) was added to each well; successively 10 μL of samples, dissolved in MeOH at different concentrations (200, 300, and 400 μM) were added; at this point, the reaction was initiated by the addition of 15 μL of the α-glucosidase enzyme (from Saccharomyces cerevisiae) (2 U/mL) in each well, and the plate was incubated for 5 min at 37°C; after 5 min 75 μL of the substrate (2.5 mM) 4-nitrophenyl α-D-glucopyranoside were added, and successively the plate was incubated for 10 min at 37°C. The absorbance was measured at 405 nm before (T0′) and after the incubation with the enzyme (T10′). […] Negative control absorbance (phosphate buffer in place of the sample) was also recorded. Inhibition of the enzyme was calculated, and the results were expressed as IC50 values. All experiments were carried out in triplicate. IC50 values were calculated through non-linear regression using Graphpad Prism 5 Software and expressed as means ± SD (standard deviation). They were considered statistically significant with values of p < 0.05.

In the next assay the test system is plasma proteins. On the set-up: method as in Cerulli et al., 2021; Masullo et al., 2021. The note with it: 10 μM, ref Cerulli et al., 2021, Masullo et al.; cited from earlier work.
Assay [2] deals with Bacillus cereus, Staphylococcus aureus, Escherichia coli and Pseudomonas aeruginosa. On the set-up: method as in Cerulli et al., 2017. The note with it: 40 μg/disk; tetracycline as positive control; ref Cerulli et al., 2017; cited from earlier work.
In assay [3] the test system is H2O2– and H2O2/Fe2+-induced lipid peroxidation. Also on record: method as in Masullo et al., 2015b. The note with it: 10 μM; TBARS assay; ref Masullo et al., 2015b; cited from earlier work.

Sequence of α-glucosidase enzyme (from Saccharomyces cerevisiae) (P53341 whole entry): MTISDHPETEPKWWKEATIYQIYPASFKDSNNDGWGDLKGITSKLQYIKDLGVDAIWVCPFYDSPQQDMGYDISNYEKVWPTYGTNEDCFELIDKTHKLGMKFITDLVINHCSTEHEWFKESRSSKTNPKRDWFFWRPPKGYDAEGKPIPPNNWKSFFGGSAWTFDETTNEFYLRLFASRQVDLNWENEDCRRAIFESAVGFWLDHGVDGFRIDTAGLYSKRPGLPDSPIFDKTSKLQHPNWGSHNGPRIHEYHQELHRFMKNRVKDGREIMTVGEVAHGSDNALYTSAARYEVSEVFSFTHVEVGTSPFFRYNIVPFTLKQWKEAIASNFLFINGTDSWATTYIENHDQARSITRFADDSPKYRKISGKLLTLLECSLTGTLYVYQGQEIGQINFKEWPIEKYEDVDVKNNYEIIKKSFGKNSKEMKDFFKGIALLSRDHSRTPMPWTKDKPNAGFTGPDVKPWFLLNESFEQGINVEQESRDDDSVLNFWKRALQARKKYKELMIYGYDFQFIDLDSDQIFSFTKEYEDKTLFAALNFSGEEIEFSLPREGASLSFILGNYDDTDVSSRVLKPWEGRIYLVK

For orientation: IC50 means the concentration that gives 50% inhibition. Turning to `COc1c2cc(c(OC)c1O)Oc1ccc(cc1)CCCC[C@H](O)/C=C\2` [Giffonin E (5), Giffonin E], the IC50 in assay [1] worked out at 167 ± 4.6 µM. As for `O=C1/C=C/CCc2ccc(O)c(c2)Oc2ccc(cc2)CC1` [Giffonin Q (18), Giffonin Q], the IC50 in assay [1] came to 127 ± 5.9 µM. Consider `Oc1ccc2cc1-c1cc(ccc1O)C[C@H](O)[C@@H](O)[C@H](O)C[C@@H](O)C2` [Giffonin L (12), Giffonin L], for which the IC50 in assay [1] amounted to 172 ± 8.9 µM. For `COc1c2cc(c(OC)c1O)Oc1ccc(cc1)[C@@H](O)C[C@@H](O)/C=C/C=C\2` [Giffonin K (11), Giffonin K], the IC50 in assay [1] came out at 70 ± 3.1 µM. Further, the “reduction of oxidation of thiol groups and carbonylation in plasma proteins” value in the assay with plasma proteins is recorded as “most active compounds”. As to `O=C1Cc2ccc(O)c(c2)-c2cc(ccc2O)C[C@@H](O)[C@@H](O)[C@@H](O)[C@H]1O` [Giffonin U (23), Giffonin U], the IC50 in assay [1] worked out at 175 ± 9.8 µM. For the same compound, in assay [2], the zones of inhibition entry is given as “completely comparable to those obtained with tetracycline”. As for `O=C1/C=C/C=C/c2ccc(O)c(c2)Oc2ccc(cc2)CC1` [Giffonin R (19), Giffonin R], in assay [1], the IC50 was 128 ± 6.1 µM. As for `O=C1/C=C/CCc2ccc(O)c(c2)-c2cc(ccc2O)CC1` [Alnusone (21), Alnusone], the IC50 in assay [1] was 154 ± 8.3 µM. For the compound `O=C1CCc2ccc(O)c(c2)-c2cc(ccc2O)C[C@H](O)C[C@@H]1O` [Giffonin M (13), Giffonin M], in assay [1], the IC50 amounted to 114 ± 9.7 µM. For `COc1c2cc(c(OC)c1O)Oc1ccc(cc1)[C@@H](O)C[C@@H](O)CC/C=C\2` [Giffonin J (10), Giffonin J], the IC50 in assay [1] came out at 56.6 ± 9.6 µM. For the compound `COc1cc2cc(c1O)Oc1ccc(cc1)CCC(=O)/C=C/C=C/2` [Giffonin S (20), Giffonin S], the half-inhibitory concentration (IC50) in assay [1] is 126 ± 8.9 µM. Same read-out and setting: in the case of `O=C1CCc2ccc(OC3OC(CO)C(O)C(O)C3O)c(c2)-c2cc(ccc2O)CC(O)C(O)C1O` (stereo not drawn) [Giffonin T (22), Giffonin T] it was 131 ± 6.1 µM. On to `O=C1CCc2ccc(O)c(c2)-c2cc(ccc2O)C[C@H](O)[C@H](O)[C@H]1O` [Carpinontriol B (24), Carpinontriol B], for which, in assay [1], the half-maximal inhibitory concentration (IC50) came out at 107 ± 6.1 µM. Also, the zones of inhibition entry in assay [2] is reported as “completely comparable to those obtained with tetracycline”. `O=C1CCc2ccc(O)c(c2)-c2cc(ccc2O)CC[C@@H](O)[C@H]1O` [Giffonin V (25), Giffonin V]: the IC50 in assay [1] came to 123 ± 4.4 µM. With `COc1c(O)cc2cc1Oc1ccc(cc1)CC[C@H](O)/C=C/C=C\2` [Giffonin H (8), Giffonin H], in assay [3], the “reduction of H2O2-induced lipid peroxidation” value is “more than 60%” and the “reduction of H2O2/Fe2+-induced lipid peroxidation” value is listed as above 50%. Further, in assay [1], the IC50 was 109 ± 2.9 µM. As to `O=C1C=CCCc2ccc(OC3OC(CO)C(O)C(O)C3O)c(c2)-c2cc(ccc2OC2OCC(O)C(O)C2O)CC1` (stereo not drawn) [Giffonin I (9), Giffonin I], the IC50 in assay [1] was determined as 105 ± 4.9 µM.

Take `O=C1C[C@@H](O)Cc2ccc(O)c(c2)-c2cc(ccc2O)C[C@H](O)[C@H]1O` [Giffonin O (15), Giffonin O]: the IC50 in assay [1] was 124 ± 11.1 µM. In the case of `Oc1ccc2cc1-c1cc(ccc1O)C[C@H](O)[C@H](O)C(O)[C@@H](O)[C@H](O)C2` (stereo partly drawn) [Giffonin P (16), Giffonin P], in assay [1], the IC50 is 55.3 ± 7.7 µM. For the compound `COc1c2cc(c(OC)c1O)Oc1ccc(cc1)[C@@H](O)CC(=O)CC/C=C/2` [Giffonin B (2), Giffonin B], the IC50 in assay [1] was found to be 164 ± 5.2 µM. As to `COc1c2cc(c(OC)c1O)Oc1ccc(cc1)CCC(=O)CC/C=C/2` [Giffonin A (1), Giffonin A], the half-maximal inhibitory concentration (IC50) in assay [1] worked out at 184 ± 6.9 µM. On the same count and under the same terms, to `COc1c2cc(c(OC)c1O)Oc1ccc(cc1)CC[C@H](O)CC/C=C\2` [Giffonin C (3), Giffonin C] belongs 105 ± 6.9 µM. Consider `O=C1CCc2ccc(O)c(c2)-c2cc(ccc2O)CC(OC2OC(CO)C(O)C(O)C2O)CC1O` (stereo not drawn) [Giffonin N (14), Giffonin N], for which the IC50 in assay [1] was 128 ± 11.3 µM. With `O=C(CCc1ccc(O)c(O)c1)C[C@H](CCc1ccc(O)c(O)c1)O[C@@H]1OC[C@@H](O)[C@H](O)[C@H]1O` [Oregonin (17), Oregonin], in assay [1], the IC50 came to 144 ± 7.2 µM.

With `COc1c2cc(c(OC)c1O)Oc1ccc(cc1)CC[C@H](O)/C=C/C=C\2` [Giffonin G (7), Giffonin G], the IC50 in assay [1] came to 108 ± 9.2 µM. Further, the “reduction of oxidation of thiol groups and carbonylation in plasma proteins” value in the assay with plasma proteins is “most active compounds”. Take `COc1c2cc(c(OC)c1O)Oc1ccc(cc1)CCC(=O)C[C@H](O)/C=C\2` [Giffonin F (6), Giffonin F]: the IC50 in assay [1] is 146 ± 4.3 µM. With `COc1c2cc(c(OC)c1O)Oc1ccc(cc1)CCC(=O)CC/C=C\2` [Giffonin D (4), Giffonin D], in assay [3], the “reduction of H2O2-induced lipid peroxidation” value is listed as “more than 60%” and the “reduction of H2O2/Fe2+-induced lipid peroxidation” value is given as above 50%. For the same compound, the concentration for half-maximal inhibition (IC50) in assay [1] stood at 108 ± 6.1 µM.
